Where a SMILES comes first, the peptide text is derived from it. [ ]: non-standard residue; d: D form. The star is where a group is joined. Dolaproine = CO[C@@H]([C@@H]1CCCN1)[C@@H](C)C(=O)O; Dil = CC[C@H](C)[C@H](NC)[C@@H](CC(=O)O)OC; X1 = C[C@@H](N*)[C@@H](O)c1ccccc1; NMeV = CN[C@H](C(=O)O)C(C)C

The subject of one assay is HT1080 cells. Kind of assay: Cell cycle distribution analysis. The class given is cell-based. Conditions: 3-day incubation, 50 nM free toxin. How it is done: (§1) Cell cycle analysis was performed using a Nucleocounter NC-3000 system (ChemoMetec Denmark), using the manufacturers standard protocol for analyzing the cell cycle distribution of a population of cells, based on the DNA content of each cell. The percentage of cells in Sub-G1, G1, S, or G2/M-phases of the cell cycle was established from histogram analysis using the NucleoView NC-3000 software.

A further assay relates to KNS42 cells. Kind of assay: Cell cycle distribution analysis. The format is cell-based. Conditions: 3-day incubation, 50 nM free toxin. How it is done: as §1
For the next assay, the system named is THP-1 cells. Kind of assay: Cell cycle distribution analysis. The class given is cell-based. Conditions: 3-day incubation, 50 nM free toxin. How it is done: as §1
The subject of another assay is U937 cells. Nature of the assay: Cell cycle distribution analysis. The class given is cell-based. Conditions: 3-day incubation, 50 nM free toxin. How it is done:
as §1

The next assay has as its target T1, uPARAP (Homo sapiens, UniProt Q9UBG0).
T1 sequence (Q9UBG0 31-1479): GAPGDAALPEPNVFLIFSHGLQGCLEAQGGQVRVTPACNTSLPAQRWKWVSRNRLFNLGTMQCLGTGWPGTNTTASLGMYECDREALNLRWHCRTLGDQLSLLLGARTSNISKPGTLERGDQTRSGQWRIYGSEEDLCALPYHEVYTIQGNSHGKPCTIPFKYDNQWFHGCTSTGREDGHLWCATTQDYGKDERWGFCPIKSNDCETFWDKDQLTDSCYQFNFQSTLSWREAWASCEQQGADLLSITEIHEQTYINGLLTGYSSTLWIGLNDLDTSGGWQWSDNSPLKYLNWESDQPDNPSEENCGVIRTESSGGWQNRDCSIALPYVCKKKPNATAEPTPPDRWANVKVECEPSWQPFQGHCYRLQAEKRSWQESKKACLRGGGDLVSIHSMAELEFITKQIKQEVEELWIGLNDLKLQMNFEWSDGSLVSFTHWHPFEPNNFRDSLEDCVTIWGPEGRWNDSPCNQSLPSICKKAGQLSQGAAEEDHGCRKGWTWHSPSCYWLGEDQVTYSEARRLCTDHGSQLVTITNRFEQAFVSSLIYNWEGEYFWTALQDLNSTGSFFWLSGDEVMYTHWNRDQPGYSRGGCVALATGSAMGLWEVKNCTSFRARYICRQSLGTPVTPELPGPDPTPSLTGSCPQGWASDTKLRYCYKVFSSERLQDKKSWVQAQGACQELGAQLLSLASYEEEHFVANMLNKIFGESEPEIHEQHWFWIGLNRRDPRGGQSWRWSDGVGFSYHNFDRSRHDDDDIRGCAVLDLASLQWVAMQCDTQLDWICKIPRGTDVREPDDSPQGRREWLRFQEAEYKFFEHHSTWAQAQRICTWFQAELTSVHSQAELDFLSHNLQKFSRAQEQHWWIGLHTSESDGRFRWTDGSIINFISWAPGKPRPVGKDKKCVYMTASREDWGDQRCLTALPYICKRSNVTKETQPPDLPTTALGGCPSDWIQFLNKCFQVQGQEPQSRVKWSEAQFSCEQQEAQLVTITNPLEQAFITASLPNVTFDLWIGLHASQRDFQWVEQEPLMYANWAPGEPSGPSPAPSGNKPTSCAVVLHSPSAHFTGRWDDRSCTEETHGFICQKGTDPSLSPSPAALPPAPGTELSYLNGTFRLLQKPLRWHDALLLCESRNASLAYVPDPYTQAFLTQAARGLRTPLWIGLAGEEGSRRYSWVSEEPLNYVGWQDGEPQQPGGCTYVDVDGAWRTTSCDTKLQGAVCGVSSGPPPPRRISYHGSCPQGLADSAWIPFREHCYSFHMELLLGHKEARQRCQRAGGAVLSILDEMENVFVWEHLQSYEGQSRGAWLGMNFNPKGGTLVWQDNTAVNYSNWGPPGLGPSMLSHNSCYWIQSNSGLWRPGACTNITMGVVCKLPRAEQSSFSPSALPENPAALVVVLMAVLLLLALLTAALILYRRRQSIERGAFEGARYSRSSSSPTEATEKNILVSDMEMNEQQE
Kind of assay: Western blotting of MG63 cell lysate. The format is binding. On the set-up: endogenous in cells; host or cells: MG63 human osteosarcoma cells. Conditions: detergent lysate of uPARAP-positive MG63 human osteosarcoma cells. How it is done: For Western blotting, a detergent cell lysate prepared from uPARAP-positive MG63 human osteosarcoma cells was analyzed, using identical concentrations of “2h9 cloned” and “2h9 original” as the primary antibodies. […] No reaction is seen in the absence of primary antibody (negative control).
In general terms: Immunoblotting shows a protein as a band on a membrane.

In the case of `CC[C@H](C)[C@@H]([C@@H](CC(=O)N1CCC[C@H]1[C@H](OC)[C@@H](C)C(=O)N[C@H](C)[C@@H](O)c1ccccc1)OC)N(C)C(=O)[C@@H](NC(=O)[C@@H](NC)C(C)C)C(C)C` [MMAE, monomethyl auristatin E, reference compound] (H-[NMeV]V[Dil][Dolaproine]-X1), the Cell cycle distribution result is “shift in cell cycle distribution towards the Sub-G1 and G2/M phases” with HT1080 cells; “shift in cell cycle distribution towards the Sub-G1 and G2/M phases” with KNS42 cells; “shift in cell cycle distribution towards the Sub-G1 and G2/M phases” in the assay with THP-1 cells; “shift in cell cycle distribution towards the Sub-G1 and G2/M phases” in the assay on U937 cells.

B1: 2h9 cloned: recombinant mAb 2h9 product produced in CHO cells from SEQ ID NO: 1 and SEQ ID NO: 5 (protein)
light: DIQMTQSPASQSASLGESVTITCLASQTIGTWLAWYQQKPGKSPQLLIYAATTLTDGVPSRFSGAGSGTKFSLKISSLQAEDFASYFCQEFFSTPFTFGSGTKLELKRADAAPTVSIFPPSSEQLTSGGASVVCFLNNFYPKDINVKWKIDGGERQNGVLNSWTDQDSKDSTYSMSSTLTLTKDEYERHNSYTCEATHKTSTSPIVKSFNRNEC
heavy: QVQLQQPGTELVRPGLSVKLSCKASGYTFTSYWMNWVKQRPGQGLEWIGMIHPSNDEKRINQKFKDKATLTVDKFSSTVYMQVSSPTSEDSAVYYCARGGGDYVGDYALDFWGQGTSVTVSSAKTTPPSVYPLAPGSAAQTNSMVTLGCLVKGYFPEPVTVTWNSGSLSSGVHTFPAVLQSDLYTLSSSVTVPSSTWPSETVTCNVAHPASSTKVDKKIVPRDCGCKPCICTVPEVSSVFIFPPKPKDVLTITLTPKVTCVVVDISKDDPEVQFSWFVDDVEVHTAQTQPREEQFNSTFRSVSELPIMHQDWLNGKEFKCRVNSAAFPAPIEKTISKTKGRPKAPQVYTIPPPKEQMAKDKVSLTCMITDFFPEDITVEWQWNGQPAENYKNTQPIMDTDGSYFIYSKLNVQKSNWEAGNTFTCSVLHEGLHNHHTEKSLSHSPGK
For B1, the figures for the “Reactivity in Western blotting” value with uPARAP and with uPARAP (listed as recombinant antibody product) were “react specifically with the uPARAP protein” and “specifically recognize uPARAP”, respectively.

The values are drawn from patent publication US11819552B2, “Antibody-drug conjugates targeting uPARAP” (RIGSHOSPITALET, priority 2016, dated 2023).
